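All cell lines were grown in 96-well plates and treated with compound for 48 hours. GI50: concentration for 50% inhibition of growth. TGI denotes the concentration required for complete inhibition of growth.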
Assays:
Experiment in all cases: NCI anticancer screen, dose series, 48 h
HCT-15 colon = tested on: HCT-15 colon
UACC-257 melanoma = tested on: UACC-257 melanoma
HOP-92 NSCLC = tested on: HOP-92 NSCLC
HT29 colon = tested on: HT29 colon
UACC-62 melanoma = tested on: UACC-62 melanoma
786-0 renal = tested on: 786-0 renal
SF-295 CNS = tested on: SF-295 CNS
MDA-MB-435 = tested on: MDA-MB-435
MCF7 breast = tested on: MCF7 breast
T-47D breast = tested on: T-47D breast

Structure (SMILES)	TGI (HCT-15 colon)	TGI (UACC-257 melanoma)	TGI (HOP-92 NSCLC)	TGI (HT29 colon)	TGI (UACC-62 melanoma)	TGI (786-0 renal)	TGI (SF-295 CNS)	GI50 (MDA-MB-435)	TGI (MDA-MB-435)	GI50 (HCT-15 colon)	GI50 (MCF7 breast)	TGI (MCF7 breast)	GI50 (HT29 colon)	GI50 (UACC-62 melanoma)	GI50 (786-0 renal)	GI50 (T-47D breast)	TGI (T-47D breast)	GI50 (SF-295 CNS)	GI50 (UACC-257 melanoma)	GI50 (HOP-92 NSCLC)
CCN1C(=O)C(N=[N+]=[N-])(c2ccccc2)C(=O)c2ccccc21 (stereo not given)	> 100 µM	> 100 µM	> 100 µM	> 100 µM	> 100 µM	> 100 µM	> 100 µM													
O=C1C2C3CCC(C2C(=O)N1CO)C1C2C(=O)N(CO)C(=O)C2C31 (stereo not given)	> 60.4 µM	> 100 µM	> 100 µM	> 100 µM	> 100 µM	> 61.3 µM	> 100 µM													
Cc1ccc(S(=O)(=O)NC(=O)C#CCOC2CCCCO2)cc1 (stereo not given)	> 100 µM	> 100 µM	> 100 µM	> 100 µM	> 100 µM	> 100 µM	> 100 µM													
O=C1C(Cl)=C(Nc2cccc(O)c2)C(=O)N1c1ccc(Cl)cc1Cl	> 100 µM			> 100 µM	57.7 µM	> 100 µM	86 µM	30.7 µM	> 100 µM	29.4 µM	19.8 µM	63.3 µM	35.1 µM	21.4 µM	32.8 µM	43.6 µM	> 100 µM	27.2 µM		
CCOC(=O)/C(=C/c1ccc(Cl)cc1)N(CC)CC	> 100 µM	> 100 µM	> 100 µM	> 100 µM	> 100 µM	> 100 µM	> 100 µM													
O=c1nc(-c2ccccc2)scc1-c1ccccc1	> 100 µM	> 100 µM	> 100 µM	> 100 µM	> 100 µM	> 100 µM	> 100 µM													
COc1cccc(N2C(=O)[C@H]3[C@H]4CC(C(C)(C)C)CC[C@H]4c4c([nH]c5ccccc45)[C@H]3C2=O)c1 (stereo not given in full)	> 100 µM	48.6 µM		92.1 µM	28.3 µM	30.1 µM	29.2 µM													
Cc1cc2c(=O)c3ccccc3oc2c(C#N)c1C		> 100 µM	> 100 µM	> 100 µM		> 100 µM	> 100 µM					> 100 µM					> 100 µM			
CS(=O)(=O)c1ccc(-c2[nH]c3ccc(F)cc3c2/C=N/NC(N)=S)cc1	> 100 µM	> 100 µM	52.9 µM	15.2 µM	> 100 µM	> 100 µM	13.1 µM			0.611 µM	2.1 µM	18.7 µM	0.558 µM	0.531 µM	0.605 µM	12.3 µM	85 µM	0.899 µM	> 100 µM	0.574 µM
CO[C@]12CCC(=O)N1C=Cc1c2[nH]c2ccccc12	> 100 µM	> 100 µM	> 100 µM	> 100 µM	> 100 µM	> 100 µM	> 100 µM													
O=C(CC(=O)c1cccc([N+](=O)[O-])c1)C(=O)Nc1nc([N+](=O)[O-])cs1	> 100 µM	> 100 µM	> 100 µM	> 100 µM	> 100 µM	> 100 µM	> 100 µM													
NC(=O)OCC(COc1ccc(Cl)cc1)OC(=O)c1cc([N+](=O)[O-])cc([N+](=O)[O-])c1 (stereo not given)	> 100 µM	> 100 µM	> 100 µM	> 100 µM	> 100 µM	> 100 µM	> 100 µM													
Cc1nn(-c2ccccc2)c(C)c1/C=N/N1CCN(Cc2ccccc2)CC1	> 100 µM	> 100 µM		> 100 µM	> 100 µM	97.4 µM	> 100 µM	> 100 µM	> 100 µM	30.4 µM	31 µM	> 100 µM	43 µM	33.8 µM	22.9 µM			> 100 µM	63 µM	
CN1CCc2cc(O)c3cc2C1Cc1ccc(cc1)Oc1cc(ccc1O)CC1c2c(cc4c(c2O3)OCO4)CCN1C (stereo not given)	60 µM			74.4 µM	47.5 µM	> 100 µM	43.6 µM													
CC(=O)OCc1c(C)c2ccccc2n1C(C)=O		89.8 µM	> 100 µM	> 100 µM	> 100 µM	> 100 µM	> 100 µM													
O=C(OC(CNc1c(C(=O)c2ccccc2)c(=O)n(Cc2ccccc2)c(=O)n1Cc1ccccc1)CN1CCCCC1)c1ccccc1 (stereo not given)	26.3 µM	32.5 µM			42.4 µM	29.4 µM	42.5 µM	18.5 µM	37.7 µM	13.5 µM	20.7 µM	39.4 µM		20.7 µM	14.9 µM	> 100 µM	> 100 µM	22.1 µM	15.1 µM	
COc1ccc(C(=O)c2cc(OC)c(OC)c(OC)c2)cc1/C=C/C(=O)c1ccc2c(c1)OCO2		> 100 µM	35.4 µM			5.84 µM	17.2 µM				0.381 µM	> 100 µM			2.28 µM			3.43 µM	3.55 µM	12 µM
O=C(NCCCCCCNC(=O)NC1OCC(O)C(O)C1O)NC1OCC(O)C(O)C1O (stereo not given)	> 100 µM		> 100 µM	> 100 µM	> 100 µM	> 100 µM	> 100 µM													
CSC1CC2C(CC1(C)SC)C2(C)C (stereo not given)	> 100 µM	86.9 µM	53.9 µM	> 100 µM	> 100 µM	> 100 µM	> 100 µM													
N#C/C(=C\c1ccc([N+](=O)[O-])s1)c1nc2cc(Br)ccc2s1	0.264 µM		0.451 µM	> 100 µM		> 100 µM	> 100 µM			0.0707 µM	0.305 µM		1.92 µM		2.68 µM					0.175 µM
N=C(N)c1ccc(-c2ccc(-c3ccc(Cl)c(Cl)c3)o2)nc1	3.53 µM		2.97 µM			3.83 µM		1.78 µM	3.25 µM	1.77 µM					1.99 µM					1.41 µM
COc1cc2c(cc1OC)C1(c3ccccc3)ON=C(c3ccccc3)N1CS2 (stereo not given)	> 100 µM	> 100 µM	> 100 µM	> 100 µM	> 100 µM	> 100 µM	> 100 µM													
CC1=C2[C@@H](c3ccccc3)C3C=CC2(c2ccccc23)N(C(=O)Nc2cccc3ccccc23)C1=O (stereo not given in full)	> 100 µM	> 100 µM	> 100 µM		> 100 µM	> 100 µM	> 100 µM													

Source: PubChem BioAssay (NCI)
